Data from US12606551B2, “Salt of tetrahydroisoquinoline derivative, preparation method therefor, and medical use thereof” (ZHEJIANG HISUN PHARMACEUTICAL CO., LTD., priority 2020, dated 2026).

Target: T1, AT1R (Homo sapiens, UniProt P30556)
T1 construct: Tb (terbium) label on the receptor; expressed in transfected cells
T1 sequence (P30556 1-359): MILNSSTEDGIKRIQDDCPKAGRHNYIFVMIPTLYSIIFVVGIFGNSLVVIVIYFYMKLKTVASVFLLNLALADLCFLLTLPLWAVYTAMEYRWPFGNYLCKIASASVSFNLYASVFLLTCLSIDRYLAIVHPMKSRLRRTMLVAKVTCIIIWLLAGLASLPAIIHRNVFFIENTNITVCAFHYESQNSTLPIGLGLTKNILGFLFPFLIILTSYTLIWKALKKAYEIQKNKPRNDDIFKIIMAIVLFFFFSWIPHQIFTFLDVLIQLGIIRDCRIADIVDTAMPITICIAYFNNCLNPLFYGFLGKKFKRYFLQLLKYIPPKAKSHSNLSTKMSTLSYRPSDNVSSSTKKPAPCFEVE
Test: Antagonistic activity against AT1R (same method with Tb-labeled-AT1R cells)
Format: binding
Experimental: (12) Similarly, the IC50 of the antagonistic activity of the compounds of the present invention against AT1R was tested according to basically the same method, except that Tb-labeled-AT2R cells were replaced by Tb-labeled-AT1R cells.

## COc1ccc(COc2c(OC)ccc3c2C[C@@H](C(=O)[O-])N(c2nc4ccc(F)cc4o2)C3)nc1.[Na+] [Compound 1]
  IC50: > 10 µM
